Assay results from patent US11000033B2, “Ketone or oxime compound, and herbicide” (NISSAN CHEMICAL CORPORATION, priority 2014, dated 2021).

Assays:
[1] = tested on: Chenopodium album; assay: Test Example 4: herbicidal effect by soil treatment (symbol O); assay type: in vivo
Procedure, shortened: (§1)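 Seeds were sown in sterilized diluvial soil, covered with about 1.5 cm of soil, and the soil surface was sprayed with a water-diluted emulsion of the compound at a predetermined rate. Plants grew in a greenhouse at 25° C. to 30° C.; effects were scored visually 3 weeks after application.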

[2] = tested on: Galium spurium; assay: Test Example 4: herbicidal effect by soil treatment (symbol Q); assay type: in vivo
Procedure, shortened: as §1

[3] = application herbicide amount 320 g/ha

Row | SMILES | O: Chenopodium album, herbicidal effect grade [1, 3] | Q: Galium spurium, herbicidal effect grade [2, 3] | further results
1 | CON=C(C)CC1CC(O)=C(c2c(C)cc(C)cc2OC)C1=O (stereo not drawn) [6-037, 3-hydroxy-2-(2-methoxy-4,6-dimethylphenyl)-5-{2-(methoxyimino)propyl}cyclopent-2-enone] | 0 (Herbicidal ratio of 5% or lower (almost no effect)) | 0 (Herbicidal ratio of 5% or lower (almost no effect)) | 
2 | CC(=O)CC1CC(OC(=O)C(C)(C)C)=C(c2c(C)cc(C)cc2C)C1=O (stereo not drawn) [2-018] | 0 (Herbicidal ratio of 5% or lower (almost no effect)) |  | 
3 | CCC(=O)CCC1CC(O)=C(c2c(C)cc(C)cc2C)C1=O (stereo not drawn) [5-001] |  | 0 (Herbicidal ratio of 5% or lower (almost no effect)) | 
4 | COCCOC(=O)OC1=C(c2c(C)cc(C)cc2C)C(=O)C(CC(C)=NOC)C1 (stereo not drawn) [1-147] |  |  | O: Chenopodium album, herbicidal effect grade ([1]; 320 g/ha): 0 (Herbicidal ratio of 5% or lower (almost no effect)); Q: Galium spurium, herbicidal effect grade ([2]; 320 g/ha): 0 (Herbicidal ratio of 5% or lower (almost no effect))
5 | CON=C(C)CC1CC(OC(=O)c2ccccc2OC(F)(F)F)=C(c2c(C)cc(C)cc2C)C1=O (stereo not drawn) [1-155] |  |  | O: Chenopodium album, herbicidal effect grade ([1]; 320 g/ha): 0 (Herbicidal ratio of 5% or lower (almost no effect)); Q: Galium spurium, herbicidal effect grade ([2]; 320 g/ha): 0 (Herbicidal ratio of 5% or lower (almost no effect))
6 | CON=C(C)CC1CC(OC(=O)c2c(Cl)nn(C)c2Cl)=C(c2c(C)cc(C)cc2C)C1=O (stereo not drawn) [1-160] |  |  | O: Chenopodium album, herbicidal effect grade ([1]; 320 g/ha): 0 (Herbicidal ratio of 5% or lower (almost no effect)); Q: Galium spurium, herbicidal effect grade ([2]; 320 g/ha): 0 (Herbicidal ratio of 5% or lower (almost no effect))
7 | C=CC(=O)CC1CC(O)=C(c2c(C)cc(C)cc2C)C1=O (stereo not drawn) [2-031] | 0 (Herbicidal ratio of 5% or lower (almost no effect)) |  | 
8 | CON=C(C)CC1CC(O)=C(c2c(C)cc(C)cc2Br)C1=O (stereo not drawn) [6-038] | 0 (Herbicidal ratio of 5% or lower (almost no effect)) |  | 
9 | Cc1cc(C)c(C2=C(O)CC(CC(=O)CC3CC3)C2=O)c(C)c1 (stereo not drawn) [2-026] |  | 0 (Herbicidal ratio of 5% or lower (almost no effect)) | 
10 | CON=C(C)CC1CC(OC(=O)N2CCCC2)=C(c2c(C)cc(C)cc2C)C1=O (stereo not drawn) [1-150] |  |  | O: Chenopodium album, herbicidal effect grade ([1]; 320 g/ha): 0 (Herbicidal ratio of 5% or lower (almost no effect)); Q: Galium spurium, herbicidal effect grade ([2]; 320 g/ha): 0 (Herbicidal ratio of 5% or lower (almost no effect))
11 | CCOC(=O)C(C(=O)c1ccccc1)C1CC(O)=C(c2c(C)cc(C)cc2C)C1=O (stereo not drawn) [2-008] | 0 (Herbicidal ratio of 5% or lower (almost no effect)) | 0 (Herbicidal ratio of 5% or lower (almost no effect)) | 
12 | Cc1cc(C)c(C2=C(O)CC(CC(=O)c3ccc(F)cc3)C2=O)c(C)c1 (stereo not drawn) [2-032] | 0 (Herbicidal ratio of 5% or lower (almost no effect)) | 0 (Herbicidal ratio of 5% or lower (almost no effect)) | 
13 | CON=C(C)CC1CC(OC(=O)OCc2ccccc2)=C(c2c(C)cc(C)cc2C)C1=O (stereo not drawn) [1-145] |  |  | O: Chenopodium album, herbicidal effect grade ([1]; 320 g/ha): 0 (Herbicidal ratio of 5% or lower (almost no effect)); Q: Galium spurium, herbicidal effect grade ([2]; 320 g/ha): 0 (Herbicidal ratio of 5% or lower (almost no effect))
14 | CC#Cc1cc(C)c(C2=C(O)CC(CC(C)=NOC)C2=O)c(CC)c1 (mixture of isomers) [6-006] | 0 (Herbicidal ratio of 5% or lower (almost no effect)) |  | 
15 | C=CCN(CC=C)C(=O)OC1=C(c2c(C)cc(C)cc2C)C(=O)C(CC(C)=NOC)C1 (stereo not drawn) [1-153] |  |  | O: Chenopodium album, herbicidal effect grade ([1]; 320 g/ha): 0 (Herbicidal ratio of 5% or lower (almost no effect)); Q: Galium spurium, herbicidal effect grade ([2]; 320 g/ha): 0 (Herbicidal ratio of 5% or lower (almost no effect))
16 | COC(=O)C(C(C)=O)C1CC(O)=C(c2c(C)cc(C)cc2C)C1=O (stereo not drawn) [2-003] |  |  | O: Chenopodium album, herbicidal effect grade ([1]; 320 g/ha): 0 (Herbicidal ratio of 5% or lower (almost no effect))
17 | CON=C(C)CC1CC(OC(=O)C(C)Oc2ccc(Oc3ccc(Cl)cc3Cl)cc2)=C(c2c(C)cc(C)cc2C)C1=O (stereo not drawn) [1-163] |  |  | O: Chenopodium album, herbicidal effect grade ([1]; 320 g/ha): 0 (Herbicidal ratio of 5% or lower (almost no effect)); Q: Galium spurium, herbicidal effect grade ([2]; 320 g/ha): 0 (Herbicidal ratio of 5% or lower (almost no effect))
18 | CON=C(C)CC1CC(O)=C(c2c(C)cc(C(C)=O)cc2C)C1=O (stereo not drawn) [6-026] | 0 (Herbicidal ratio of 5% or lower (almost no effect)) | 0 (Herbicidal ratio of 5% or lower (almost no effect)) | 
19 | CON=C(C)CC1CC(OC(=O)N2CCN(C)CC2)=C(c2c(C)cc(C)cc2C)C1=O (stereo not drawn) [1-152] |  |  | O: Chenopodium album, herbicidal effect grade ([1]; 320 g/ha): 0 (Herbicidal ratio of 5% or lower (almost no effect)); Q: Galium spurium, herbicidal effect grade ([2]; 320 g/ha): 0 (Herbicidal ratio of 5% or lower (almost no effect))
20 | CCOC(=O)C(C(=O)CC1CC1)C1CC(O)=C(c2c(C)cc(C)cc2C)C1=O (stereo not drawn) [2-025] | 0 (Herbicidal ratio of 5% or lower (almost no effect)) | 0 (Herbicidal ratio of 5% or lower (almost no effect)) | 
21 | CON=C(C)CC1CC(O)=C(c2c(C)cc(-c3ccc(OC)cc3)cc2C)C1=O (mixture of isomers) [6-017] | 0 (Herbicidal ratio of 5% or lower (almost no effect)) | 0 (Herbicidal ratio of 5% or lower (almost no effect)) | 
22 | CCC(=O)CC1CC(O)=C(c2c(C)cc(C)cc2C)C1=O (stereo not drawn) [2-006] | 0 (Herbicidal ratio of 5% or lower (almost no effect)) | 0 (Herbicidal ratio of 5% or lower (almost no effect)) | 
23 | CCc1cc(C#C[Si](C)(C)C)cc(C)c1C1=C(O)CC(CC(C)=NOC)C1=O (mixture of isomers) [6-008] |  | 0 (Herbicidal ratio of 5% or lower (almost no effect)) | 

Row | SMILES | O: Chenopodium album, herbicidal effect grade [1, 3] | Q: Galium spurium, herbicidal effect grade [2, 3] | further results
24 | CCCC(=O)CC1CC(O)=C(c2c(C)cc(C)cc2C)C1=O (stereo not drawn) [2-021] | 0 (Herbicidal ratio of 5% or lower (almost no effect)) |  | 
25 | CON=C(C)CC1CC(OC(=O)C(C)(C)c2ccc(Cl)cc2)=C(c2c(C)cc(C)cc2C)C1=O (stereo not drawn) [1-148] |  |  | O: Chenopodium album, herbicidal effect grade ([1]; 320 g/ha): 0 (Herbicidal ratio of 5% or lower (almost no effect)); Q: Galium spurium, herbicidal effect grade ([2]; 320 g/ha): 0 (Herbicidal ratio of 5% or lower (almost no effect))
26 | CON=C(C)CC1CC(O)=C(c2c(C)cc(-c3ccc(Cl)cc3)cc2C)C1=O (mixture of isomers) [6-029] | 3 (Herbicidal ratio of 40% or higher and lower than 70%) |  | 
27 | Cc1cc(C)c(C2=C(O)CC(CC(=O)C3CC3)C2=O)c(C)c1 (stereo not drawn) [2-017] | 0 (Herbicidal ratio of 5% or lower (almost no effect)) | 0 (Herbicidal ratio of 5% or lower (almost no effect)) | 
28 | CON=C(C)CC1CC(OS(=O)(=O)C2CC2)=C(c2c(C)cc(C)cc2C)C1=O (stereo not drawn) [1-143] |  |  | Q: Galium spurium, herbicidal effect grade ([2]; 320 g/ha): 0 (Herbicidal ratio of 5% or lower (almost no effect))
29 | CON=C(C)CC1CC(OS(=O)(=O)c2ccc(C)cc2)=C(c2c(C)cc(C)cc2C)C1=O (stereo not drawn) [1-161] |  |  | O: Chenopodium album, herbicidal effect grade ([1]; 320 g/ha): 0 (Herbicidal ratio of 5% or lower (almost no effect))
30 | CON=C(C)CC1CC(O)=C(c2c(C)cc(-c3ccc(Cl)nc3)cc2C)C1=O (mixture of isomers) [6-035] |  | 0 (Herbicidal ratio of 5% or lower (almost no effect)) | 
31 | CCOC(=O)C(CC)(C(C)=O)C1CC(O)=C(c2c(C)cc(C)cc2C)C1=O (stereo not drawn) [2-012] | 0 (Herbicidal ratio of 5% or lower (almost no effect)) |  | 
32 | CON=C(C)CC1CC(OC(=O)c2ccc(C(F)(F)F)cc2)=C(c2c(C)cc(C)cc2C)C1=O (stereo not drawn) [1-149] |  |  | O: Chenopodium album, herbicidal effect grade ([1]; 320 g/ha): 0 (Herbicidal ratio of 5% or lower (almost no effect))
33 | Cc1cc(C)c(C2=C(O)CC(CC(=O)Cc3ccccc3)C2=O)c(C)c1 (stereo not drawn) [2-015] | 0 (Herbicidal ratio of 5% or lower (almost no effect)) |  | 
34 | CCC(CCC1CC(O)=C(c2c(C)cc(C)cc2C)C1=O)=NOC (mixture of isomers) [4-001] |  | 0 (Herbicidal ratio of 5% or lower (almost no effect)) | 
35 | CON=C(C)CC1CC(OC(=O)Cc2ccc(OC)cc2)=C(c2c(C)cc(C)cc2C)C1=O (stereo not drawn) [1-156] |  |  | O: Chenopodium album, herbicidal effect grade ([1]; 320 g/ha): 0 (Herbicidal ratio of 5% or lower (almost no effect))
36 | CON=C(C)CC1CC(OS(=O)(=O)CCCCl)=C(c2c(C)cc(C)cc2C)C1=O (stereo not drawn) [1-142] |  |  | Q: Galium spurium, herbicidal effect grade ([2]; 320 g/ha): 0 (Herbicidal ratio of 5% or lower (almost no effect))
37 | CCOC(=O)C(C(=O)Cc1ccccc1)C1CC(O)=C(c2c(C)cc(C)cc2C)C1=O (stereo not drawn) [2-011] | 0 (Herbicidal ratio of 5% or lower (almost no effect)) |  | 
38 | Cc1cc(C)c(C2=C(O)CC(CC(=O)C(C)(C)C)C2=O)c(C)c1 (stereo not drawn) [2-022] | 0 (Herbicidal ratio of 5% or lower (almost no effect)) |  | 
39 | CON=C(C)CC1CC(OC(=O)c2ccccc2)=C(c2c(C)cc(C)cc2C)C1=O (stereo not drawn) [1-010] |  |  | Q (Galium spurium) herbicidal effect grade [2, 3]: 2 (Herbicidal ratio of 20% or higher and lower than 40%)
40 | CON=C(C)C1CC(O)=C(c2c(C)cc(C)cc2C)C1=O (mixture of isomers) [3-002] | 0 (Herbicidal ratio of 5% or lower (almost no effect)) |  | 
41 | CON=C(C)CC1CC(OCC(=O)OC)=C(c2c(C)cc(C)cc2C)C1=O (stereo not drawn) [1-012] |  |  | Q (Galium spurium) herbicidal effect grade [2, 3]: 0 (Herbicidal ratio of 5% or lower (almost no effect))
42 | CON=C(C)CC1CC(O)=C(c2c(C)cc(C#CCO)cc2C)C1=O (mixture of isomers) [6-025] |  | 0 (Herbicidal ratio of 5% or lower (almost no effect)) | 
43 | COC(=O)C(C(=O)C1CC1)C1CC(O)=C(c2c(C)cc(C)cc2C)C1=O (stereo not drawn) [2-014] | 0 (Herbicidal ratio of 5% or lower (almost no effect)) |  | 
44 | CON=C(C)CC1CC(O)=C(c2c(C)cc(-c3cccc(Cl)c3)cc2C)C1=O (mixture of isomers) [6-034] | 0 (Herbicidal ratio of 5% or lower (almost no effect)) |  | 
45 | CON=C(C)CC1CC(OC(=O)OC)=C(c2c(C)cc(C)cc2C)C1=O (stereo not drawn) [1-014] |  |  | Q (Galium spurium) herbicidal effect grade [2, 3]: 5 (Herbicidal ratio of 90% or more (almost completely withered))
46 | CC(=O)C(C(C)=O)C1CC(O)=C(c2c(C)cc(C)cc2C)C1=O (stereo not drawn) [2-002] |  |  | Q: Galium spurium, herbicidal effect grade ([2]; 320 g/ha): 0 (Herbicidal ratio of 5% or lower (almost no effect))
